In ChEMBL document CHEMBL5038624, “Construction and activity evaluation of novel dual-target (SE/CYP51) anti-fungal agents containing amide naphthyl structure” (Eur J Med Chem, 2022):
≈ marks a conversion by molar mass, not a printed value. Calls of active or inactive are those of the source. The rule behind the calls is not given here.

Columns and labels:
Candida tropicalis = experiment: Antifungal activity against Candida tropicalis ATCC 1369 assessed as reduction in fungal growth incubated for 72 hrs by CLSI protocol based broth microdilution method; type: functional
Candida albicans [1] = experiment: Antifungal activity against Candida albicans strain 901 assessed as reduction in fungal growth incubated for 72 hrs by CLSI protocol based broth microdilution method; type: functional
Candida albicans [2] = experiment: Induction of apoptosis against Candida albicans ATCC SC5314 assessed as necrotic cells measured after 48 hrs by Annexin V-FITC/propidium iodide staining based flow cytometry (reference value: 18.22 %); type: functional
Candida albicans [3] = experiment: Antifungal activity against Candida albicans SC5314 assessed as reduction in fungal growth incubated for 72 hrs by CLSI protocol based broth microdilution method; type: functional
Candida albicans [4] = experiment: Inhibition of SE/CYP51 in Candida albicans ATCC SC5314 assessed as eburicol level incubated for 48 hrs by LC/MS analysis; parameters: scale not given: the % may be the effect or the level left
Candida albicans [5] = experiment: Inhibition of SE/CYP51 in Candida albicans ATCC SC5314 assessed as squalene level incubated for 48 hrs by LC/MS analysis; parameters: scale not given: the % may be the effect or the level left
Candida albicans [6] = experiment: Induction of apoptosis against Candida albicans ATCC SC5314 assessed as mild apoptotic cells measured after 48 hrs by Annexin V-FITC/propidium iodide staining based flow cytometry (Rvb =0.29 %); type: functional
Candida albicans [7] = experiment: Inhibition of SE/CYP51 in Candida albicans ATCC SC5314 assessed as ergosterol level incubated for 48 hrs by LC/MS analysis; parameters: scale not given: the % may be the effect or the level left
Candida albicans [8] = experiment: Inhibition of SE/CYP51 in Candida albicans ATCC SC5314 assessed as unknown sterol level incubated for 48 hrs by LC/MS analysis; parameters: scale not given: the % may be the effect or the level left
Candida albicans [9] = experiment: Antifungal activity against Candida albicans strain 632 assessed as reduction in fungal growth incubated for 72 hrs by CLSI protocol based broth microdilution method; type: functional
Candida albicans [10] = experiment: Antifungal activity against Candida albicans strain CaR assessed as reduction in fungal growth incubated for 72 hrs by CLSI protocol based broth microdilution method; type: functional
Candida albicans [11] = experiment: Antifungal activity against Candida albicans strain 904 assessed as reduction in fungal growth incubated for 72 hrs by CLSI protocol based broth microdilution method; type: functional
Aspergillus fumigatus = experiment: Antifungal activity against Aspergillus fumigatus KM8001 assessed as reduction in fungal growth incubated for 72 hrs by CLSI protocol based broth microdilution method; type: functional
[12] = molecular target: Lanosterol 14-alpha demethylase (Candida albicans (strain SC5314 / ATCC MYA-2876) (Yeast), UniProt P10613); experiment: Inhibition of CYP51 in Candida albicans ATCC SC5314 measured after 30 mins by HPLC analysis
Sequence of Lanosterol 14-alpha demethylase (P10613 whole entry): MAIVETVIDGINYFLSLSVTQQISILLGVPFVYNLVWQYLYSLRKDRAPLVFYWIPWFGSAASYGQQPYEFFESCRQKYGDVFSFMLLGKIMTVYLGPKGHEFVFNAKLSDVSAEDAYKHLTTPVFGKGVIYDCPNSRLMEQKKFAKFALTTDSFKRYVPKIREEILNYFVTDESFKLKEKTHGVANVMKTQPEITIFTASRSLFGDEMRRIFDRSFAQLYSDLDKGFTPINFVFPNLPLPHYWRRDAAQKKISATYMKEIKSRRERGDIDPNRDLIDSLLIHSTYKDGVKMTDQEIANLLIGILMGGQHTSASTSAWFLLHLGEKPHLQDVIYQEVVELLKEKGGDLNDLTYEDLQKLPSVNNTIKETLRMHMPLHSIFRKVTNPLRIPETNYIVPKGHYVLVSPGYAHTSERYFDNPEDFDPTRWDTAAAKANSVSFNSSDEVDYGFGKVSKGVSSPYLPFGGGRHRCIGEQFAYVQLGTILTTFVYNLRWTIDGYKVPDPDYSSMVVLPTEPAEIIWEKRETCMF

Candida albicans [13] = experiment: Antifungal activity against Candida albicans strain 17 assessed as reduction in fungal growth incubated for 72 hrs by CLSI protocol based broth microdilution method; type: functional
Candida albicans [14] = experiment: Induction of apoptosis against Candida albicans ATCC SC5314 assessed as late apoptotic cells measured after 48 hrs by Annexin V-FITC/propidium iodide staining based flow cytometry (reference value: 0.71 %); type: functional
Candida albicans [15] = experiment: Induction of apoptosis against Candida albicans ATCC SC5314 assessed as viable cells measured after 48 hrs by Annexin V-FITC/propidium iodide staining based flow cytometry (reference value: 80.78 %); type: functional
Candida albicans [16] = experiment: Inhibition of SE/CYP51 in Candida albicans ATCC SC5314 assessed as lanosterol level incubated for 48 hrs by LC/MS analysis; parameters: scale not given: the % may be the effect or the level left
Pichia kudriavzevii = experiment: Antifungal activity against Candida krusei ATCC 6258 assessed as reduction in fungal growth incubated for 72 hrs by CLSI protocol based broth microdilution method; type: functional
Nakaseomyces glabratus = experiment: Antifungal activity against Candida glabrata ATCC 0001 assessed as reduction in fungal growth incubated for 72 hrs by CLSI protocol based broth microdilution method; type: functional
[17] = Toxicity in mouse infected with Candida albicans ATCC SC5314 assessed as effect on heart at 4 mg/kg,ip administrated every 2 days for 14 days by hematoxylin-eosin staining based assay; type: organism-based; conditions: in vivo, 336 h, time 14 day
[18] = Toxicity in mouse assessed as effect on aspartate transaminase level; conditions: in vivo
[19] = Toxicity in mouse assessed as effect on blood urea nitrogen level; conditions: in vivo
Candida albicans [20] = experiment: Antifungal activity against Candida albicans ATCC SC5314 infected in mouse assessed as decrease in fungal infection at 4 mg/kg,ip administrated every 2 days for 14 days; type: functional, organism-based; conditions: time 14.0 day
[21] = Toxicity in mouse infected with Candida albicans ATCC SC5314 assessed as effect on liver at 4 mg/kg,ip administrated every 2 days for 14 days by hematoxylin-eosin staining based assay; type: organism-based; conditions: in vivo, 336 h, time 14 day
[22] = Toxicity in mouse infected with Candida albicans ATCC SC5314 assessed as effect on kidney at 4 mg/kg,ip administrated every 2 days for 14 days by hematoxylin-eosin staining based assay; type: organism-based; conditions: in vivo, 336 h, time 14 day
[23] = Toxicity in mouse infected with Candida albicans ATCC SC5314 assessed as effect on spleen at 4 mg/kg,ip administrated every 2 days for 14 days by hematoxylin-eosin staining based assay; type: organism-based; conditions: in vivo, 336 h, time 14 day
Mus musculus = experiment: Antifungal activity against Candida albicans ATCC SC5314 infected in mouse assessed as increase in body weight at 4 mg/kg,ip administrated every 2 days for 14 days; type: functional, organism-based; conditions: time 14.0 day
Candida albicans [24] = experiment: Antifungal activity against Candida albicans ATCC SC5314 assessed as decrease in fungal cell density by fluorescence microscopy; type: functional, organism-based
[25] = Toxicity in mouse infected with Candida albicans ATCC SC5314 assessed as effect on lung at 4 mg/kg,ip administrated every 2 days for 14 days by hematoxylin-eosin staining based assay; type: organism-based; conditions: in vivo, 336 h, time 14 day
[26] = Inhibition of SE in Candida albicans ATCC SC5314 measured after 30 mins by HPLC analysis
Candida albicans [27] = experiment: Antifungal activity against Candida albicans ATCC SC5314 infected in mouse assessed as reduction on endothelial fungal infection at 4 mg/kg,ip administrated every 2 days for 14 days by hematoxylin-eosin staining based assay; type: functional, organism-based; conditions: time 14.0 day
[28] = Toxicity in mouse assessed as effect on alanine transaminase level; conditions: in vivo

What does the source list for OC(Cn1cncn1)(Cn1cncn1)c1ccc(F)cc1F [FLUCONAZOLE]?
MIC50 (Candida tropicalis): 0.5 µg/mL (≈ 1.63 µM); MIC50 (Candida albicans [1]): > 8 µg/mL; Activity (Candida albicans [2]): 24.61%; MIC50 (Candida albicans [3]): 0.25 µg/mL (≈ 0.816 µM); Activity (Candida albicans [4]): 41.5%; Activity (Candida albicans [5]): 1.8%; Activity (Candida albicans [6]): 0.22%; Activity (Candida albicans [7]): 26.5%; Activity (Candida albicans [8]): 6.6%; MIC50 (Candida albicans [9]): > 8 µg/mL; MIC50 (Candida albicans [10]): > 8 µg/mL; MIC50 (Candida albicans [11]): > 8 µg/mL; MIC50 (Aspergillus fumigatus): > 8 µg/mL; IC50 [12]: 134 nM; MIC50 (Candida albicans [13]): > 8 µg/mL; Activity (Candida albicans [14]): 0.92%; Activity (Candida albicans [15]): 74.25%; Activity (Candida albicans [16]): 23.6%; MIC50 (Pichia kudriavzevii): 0.5 µg/mL (≈ 1.63 µM); MIC50 (Nakaseomyces glabratus): 0.5 µg/mL (≈ 1.63 µM)

Which MIC50 (Candida tropicalis) does the source give for O=C(/C=C/c1ccc2ccccc2c1)NC(C(=O)NCc1ccncc1)c1ccccc1 (centres undefined) here?
The MIC50 was 1 µg/mL (≈ 2.37 µM).

And the MIC50 (Candida albicans [3])?
The MIC50 was 1 µg/mL (≈ 2.37 µM).

And the MIC50 (Aspergillus fumigatus)?
Its MIC50 is over 8 µg/mL.

And the MIC50 (Pichia kudriavzevii)?
The MIC50 was 2 µg/mL (≈ 4.74 µM).

And the MIC50 (Nakaseomyces glabratus)?
Its MIC50 is 1 µg/mL (≈ 2.37 µM).

For O=C(/C=C/c1cccc2ccccc12)NCC(=O)c1ccccc1, which MIC50 (Candida albicans [3]) is on record?
Its MIC50 is 8 µg/mL (≈ 25.4 µM).

With O=C(/C=C/c1cccc2ccccc12)NC(Cn1cncn1)C(=O)c1ccccc1 (centres undefined) as the compound, how does the MIC50 (Candida tropicalis) read?
Its MIC50 is 0.125 µg/mL (≈ 0.315 µM).

What about the MIC50 (Candida albicans [3]) of the same compound?
The MIC50 was 0.25 µg/mL (≈ 0.631 µM).

What about the MIC50 (Aspergillus fumigatus) of the same compound?
The MIC50 was 4 µg/mL (≈ 10.1 µM).

What about the MIC50 (Pichia kudriavzevii) of the same compound?
The MIC50 was 0.5 µg/mL (≈ 1.26 µM).

What about the MIC50 (Nakaseomyces glabratus) of the same compound?
The MIC50 was 0.25 µg/mL (≈ 0.631 µM).

For O=C(/C=C/c1cccc2ccccc12)NC(Cn1ccnc1)c1ccccc1 (centres undefined), which MIC50 (Candida tropicalis) is on record?
The MIC50 was 0.25 µg/mL (≈ 0.68 µM).

And the MIC50 (Candida albicans [1])?
Its MIC50 is 4 µg/mL (≈ 10.9 µM).

What about the MIC50 (Candida albicans [3]) of the same compound?
The MIC50 was 0.125 µg/mL (≈ 0.34 µM).

And the MIC50 (Candida albicans [9])?
The MIC50 was over 8 µg/mL.

And the MIC50 (Candida albicans [10])?
The MIC50 was 4 µg/mL (≈ 10.9 µM).

And the MIC50 (Candida albicans [11])?
Its MIC50 is over 8 µg/mL.

And the MIC50 (Aspergillus fumigatus)?
Its MIC50 is 2 µg/mL (≈ 5.44 µM).

And the MIC50 (Candida albicans [13])?
The MIC50 was 4 µg/mL (≈ 10.9 µM).

What about the MIC50 (Pichia kudriavzevii) of the same compound?
Its MIC50 is 0.125 µg/mL (≈ 0.34 µM).

What about the MIC50 (Nakaseomyces glabratus) of the same compound?
The MIC50 was 0.5 µg/mL (≈ 1.36 µM).

With O=C(/C=C/c1ccc2ccccc2c1)NC(Cn1cncn1)C(=O)c1ccccc1 (centres undefined) as the compound, how does the MIC50 (Candida tropicalis) read?
Its MIC50 is 0.25 µg/mL (≈ 0.631 µM).

What about the Activity [17] of the same compound?
Its Activity is “Non-Toxic”.

What about the MIC50 (Candida albicans [1]) of the same compound?
Its MIC50 is 4 µg/mL (≈ 10.1 µM).

What about the Activity (Candida albicans [2]) of the same compound?
Its Activity is 43.87%.

What about the Activity [18] of the same compound?
Its Activity is 107.5 IU/L.

And the Activity [19]?
Its Activity is 6.8 mmol/L.

What about the MIC50 (Candida albicans [3]) of the same compound?
The MIC50 was 0.125 µg/mL (≈ 0.315 µM).

And the Activity (Candida albicans [4])?
The Activity was 34.7%.

What about the Activity (Candida albicans [20]) of the same compound?
The Activity was “Active”.

And the Activity (Candida albicans [5])?
The Activity was 28.9%.

And the Activity (Candida albicans [6])?
The Activity was 0.36%.

What about the Activity [21] of the same compound?
The Activity was “Non-Toxic”.

What about the Activity (Candida albicans [7]) of the same compound?
The Activity was 16.4%.

And the Activity (Candida albicans [8])?
The Activity was 6.4%.

And the MIC50 (Candida albicans [9])?
The MIC50 was 2 µg/mL (≈ 5.04 µM).

What about the Activity [22] of the same compound?
The Activity was “Non-Toxic”.

What about the MIC50 (Candida albicans [10]) of the same compound?
Its MIC50 is 2 µg/mL (≈ 5.04 µM).

What about the Activity [23] of the same compound?
The Activity was “Non-Toxic”.

And the Activity (Mus musculus)?
The Activity was “Active”.

What about the MIC50 (Candida albicans [11]) of the same compound?
Its MIC50 is 4 µg/mL (≈ 10.1 µM).

What about the MIC50 (Aspergillus fumigatus) of the same compound?
Its MIC50 is 2 µg/mL (≈ 5.04 µM).

And the IC50 [12]?
The IC50 was 323 nM.

What about the Activity (Candida albicans [24]) of the same compound?
The Activity was “Active”.

And the MIC50 (Candida albicans [13])?
Its MIC50 is 4 µg/mL (≈ 10.1 µM).

What about the Activity (Candida albicans [14]) of the same compound?
Its Activity is 1.11%.

And the Activity (Candida albicans [15])?
The Activity was 54.66%.

And the Activity [25]?
Its Activity is “Non-Toxic”.

And the IC50 [26]?
The IC50 was 650 nM.

What about the Activity (Candida albicans [27]) of the same compound?
The Activity was “Active”.

And the Activity (Candida albicans [16])?
Its Activity is 13.6%.

And the Activity [28]?
Its Activity is 96.5 IU/L.

And the MIC50 (Pichia kudriavzevii)?
Its MIC50 is 0.5 µg/mL (≈ 1.26 µM).

What about the MIC50 (Nakaseomyces glabratus) of the same compound?
The MIC50 was 0.125 µg/mL (≈ 0.315 µM).

With O=C(/C=C/c1ccc2ccccc2c1)NC(C(=O)Nc1cccnc1)c1ccccc1 (centres undefined) as the compound, how does the MIC50 (Candida tropicalis) read?
Its MIC50 is 0.25 µg/mL (≈ 0.614 µM).

And the MIC50 (Candida albicans [3])?
Its MIC50 is 0.5 µg/mL (≈ 1.23 µM).

What about the MIC50 (Aspergillus fumigatus) of the same compound?
The MIC50 was 4 µg/mL (≈ 9.82 µM).

What about the MIC50 (Pichia kudriavzevii) of the same compound?
The MIC50 was 1 µg/mL (≈ 2.45 µM).

What about the MIC50 (Nakaseomyces glabratus) of the same compound?
The MIC50 was 0.25 µg/mL (≈ 0.614 µM).
